Columns and labels:
[1] = tested on: PolyRes strain of Haemonchus contortus (resistant against levamisole, mebendazole, ivermectin and closantel); experiment: Efficacy study of anthelmintics in in vivo H. contortus/jirds model; design: species or system Haemonchus contortus in jirds (Meriones unguiculatus); conditions: jirds, oral; for Med. W.b. (median worm burden): treated day 11, necropsy day 14; for % Efficacy: reduction of mean worm count vs control group; for anthelmintic efficacy compared with art known compounds (A) and (B): multi-resistant strain of Haemonchus contortus, comparison in words
Description: The anthelmintic efficacy of the compounds of the present invention was evaluated in an in vivo model using unmedicated jirds (Meriones unguiculatus), inoculated three times with approximately 300 exsheated infective larvae of Haemonchus contortus (multiresistant strain), treated orally with a test compound 11 days after their first infection with H. contortus larvae, and necropsied on day 14 to count the number of recovered H. contortus worms. The anthelmintic efficacy of the art known compounds (A) and (B) was also evaluated using the same model.
Female CRW jirds aged between 28 and 35 days and weighing 30-35 g (Charles River, Sulzfeld, Germany) were used. Three jirds each were assigned randomly upon arrival to translucent polysulfone individually ventilated cages (48×37.5×21 cm) containing wood shavings. Commercial rodent chow and water were given ad libitum. Following a four-day acclimation period, the jirds were artificially infected.
A PolyRes strain of Haemonchus contortus (resistant against levamisole, mebendazole, ivermectin and closantel) was used. This strain has been maintained in artificially infected male donor lambs. Individual feces containing Haemonchus eggs were collected in fecal bags. The fecal pellets were broken, mixed with charcoal, moistened and put in an incubator for embryonation at 28° C. and 95% relative humidity. Seven days later this mixture was placed in Baermann funnels and third stage ensheathed larvae were collected after 12 hours. These larvae were rinsed with water for cleaning and disinfected with a 2% formalin solution. Such larvae can be used immediately for artificial infection or can be stored in the fridge at about 8° C. for a maximum duration of 6 months. Infective larvae (<6 months old) were exsheathed by rinsing with a 3.3 vol % commercial sodium hypochlorite solution during 10 minutes, filtered through a Buchner funnel, rinsed with water, concentrated in a Baermann funnel, and collected after 2 hours. Exsheathed larvae prepared in this manner can be used for subsequent infection of jirds or laid in a supply for extended periods by cooling in the gas over liquid nitrogen during 1 hour and storing in liquid nitrogen at −196° C.
All jirds were inoculated orally with approximately 300 exsheathed infective larvae of H. contortus per dose on three consecutive days. Inoculations were administered using a blunted 18 G dosing needle fitted to a 1 ml syringe.
Eleven days after their first infection jirds were treated with test compounds, suspended or dissolved in 0.4 ml DMSO, and the dose to be tested was administered in a volume of 0.1 ml/50 g bodyweight via a blunted 18 G dosing needle fitted to a 1 ml syringe. Control animals, included in each experiment, remained untreated. Levamisole hydrochloride, mebendazole, ivermectin and closantel were used in different dosage titration experiments to validate the model.
All jirds were starved 20 hours before necropsy and killed on day 14 past first infection by CO2 inhalation. For worm recovery their stomachs were removed, opened longitudinally, and incubated in a beaker with 20 ml digestion fluid (10 g pepsin+30 ml concentrated hydrochloric acid) at 37° C. for 3 hours. Following digestion, the stomach content was passed through a tea-strainer, the passage fluid was catched in a sieve (32 μm) and the worms were recovered with tap water. The beakers were stored in the fridge for subsequent counting.
The content of each beaker was mixed, poured over in a 6-well plate in 6 aliquots, and the worms were counted under an inverted microscope.

| Structure (SMILES) | Med. W.b. (median worm burden) ([1]; dose 2.5 mpk) | % Efficacy ([1]; dose 2.5 mpk) [%] | Med. W.b. (median worm burden) ([1]; dose 5 mpk) | % Efficacy ([1]; dose 5 mpk) [%] | Med. W.b. (median worm burden) ([1]; dose 10 mpk) | % Efficacy ([1]; dose 10 mpk) [%] | anthelmintic efficacy compared with art known compounds (A) and (B) [1] | melting point [°C] |
| --- | --- | --- | --- | --- | --- | --- | --- | --- |
| O=C(Nc1cccc([C@H]2CN3CCSC3=N2)c1)[C@H]1CCCO1 [Co. No. 1, (2R)-tetrahydro-furan-2-carboxylic acid (6S)-[3-(2,3,5,6-tetrahydro-imidazo[2,1-b]thiazol-6-yl)-phenyl]-amide] | 36.0 | 65.9 | 6.0 | 79.3 | 0.0 | 100.0 | better demonstrated anthelmintic efficacy than the art known compounds (A) and (B) | 42 to 57 |
| O=C(Nc1cccc([C@H]2CN3CCSC3=N2)c1)C1CCCO1 (stereo partly drawn) [Co. No. 4] | – | – | 5.0 | 68.8 | 3.0 | 85.0 | better demonstrated anthelmintic efficacy than the art known compounds (A) and (B) | – |
| O=C(Nc1cccc([C@H]2CN3CCSC3=N2)c1)c1ccco1 [Co. No. A, furan-2-carboxylic acid [3-(2,3,5,6-tetrahydro-imidazo[2,1-b]thiazol-6-yl)-phenyl]-amide, reference compound] | – | – | 11.0 | 35.3 | 7.0 | 65.0 | – | – |
| c1cc(NCC2CCCO2)cc([C@H]2CN3CCSC3=N2)c1 (stereo partly drawn) [Co. No. B, (tetrahydrofuran-2-ylmethyl)-[3-(2,3,5,6-tetrahydro-imidazo[2,1-b]thiazol-6-yl)-phenyl]-amine, reference compound] | – | – | 10.0 | 55.6 | 14.0 | 60.6 | – | – |

— patent publication US20080287511A1, “Anthelmintic Imidazol-Thiazole Derivates” (priority 2005, published 2008)
